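Values below derive from 48-hour exposures of cells grown in 96-well plates, with endpoints linearly interpolated between the two concentrations bracketing the appropriate inhibition level. GI50: concentration for 50% inhibition of growth.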 Calls of active or inactive are those of the source. Rule as the data show it: active = GI50 up to about 1.1 µM and inactive = higher.
What was measured:
Test in all cases: NCI tumour cell line growth inhibition, 48 h
[1] = tested on: 786-0
[2] = tested on: A498
[3] = tested on: A549
[4] = tested on: ACHN
[5] = tested on: CCRF-CEM
[6] = tested on: COLO 205
[7] = tested on: DLD-1
[8] = tested on: DMS-114
[9] = tested on: DMS-273
[10] = tested on: EKVX
[11] = tested on: HCC 2998
[12] = tested on: HCT-116
[13] = tested on: HL-60
[14] = tested on: HOP-62
[15] = tested on: HOP-92
[16] = tested on: HT-29
[17] = tested on: IGROV-1
[18] = tested on: K562
[19] = tested on: KM-20L2
[20] = tested on: KM12
[21] = tested on: LOX IMVI
[22] = tested on: LXFL 529
[23] = tested on: M14
[24] = tested on: M19-MEL
[25] = tested on: MOLT-4
[26] = tested on: Malme-3M
[27] = tested on: NCI-H226
[28] = tested on: NCI-H23
[29] = tested on: NCI-H460
[30] = tested on: NCI-H522
[31] = tested on: OVCAR-3
[32] = tested on: OVCAR-5
[33] = tested on: OVCAR-8
[34] = tested on: RPMI-8226
[35] = tested on: RXF 393
[36] = tested on: SF-268
[37] = tested on: SF-295
[38] = tested on: SF-539
[39] = tested on: SK-MEL-28
[40] = tested on: SK-MEL-2
[41] = tested on: SK-MEL-5
[42] = tested on: SK-OV-3
[43] = tested on: SNB-75
[44] = tested on: SNB-78
[45] = tested on: SW-620
[46] = tested on: TK-10
[47] = tested on: U-251
[48] = tested on: UACC-257
[49] = tested on: UACC-62
[50] = tested on: UO-31
[51] = tested on: XF498
[52] = tested on: CAKI-1
[53] = tested on: HCT-15
[54] = tested on: OVCAR-4
[55] = tested on: SN12C
[56] = tested on: SNB-19
[57] = tested on: SR

Q: For `C/C(CC(=O)Nc1cc(C)ccc1C)=N/N=C(N)N`, which GI50 [1] is on record?
A: > 100 µM (inactive)

Q: What about the GI50 [2] of the same molecule?
A: > 100 µM (inactive)

Q: And the GI50 [3]?
A: > 100 µM (inactive)

Q: What about the GI50 [4] of the same molecule?
A: > 100 µM (inactive)

Q: What about the GI50 [5] of the same molecule?
A: > 100 µM (inactive)

Q: What about the GI50 [6] of the same molecule?
A: > 100 µM (inactive)

Q: What about the GI50 [7] of the same molecule?
A: > 100 µM (inactive)

Q: What about the GI50 [8] of the same molecule?
A: > 100 µM (inactive)

Q: And the GI50 [9]?
A: > 100 µM (inactive)

Q: And the GI50 [10]?
A: > 100 µM (inactive)

Q: And the GI50 [11]?
A: > 100 µM (inactive)

Q: And the GI50 [12]?
A: > 100 µM (inactive)

Q: And the GI50 [13]?
A: > 100 µM (inactive)

Q: And the GI50 [14]?
A: > 100 µM (inactive)

Q: What about the GI50 [15] of the same molecule?
A: > 100 µM (inactive)

Q: What about the GI50 [16] of the same molecule?
A: > 100 µM (inactive)

Q: And the GI50 [17]?
A: > 100 µM (inactive)

Q: What about the GI50 [18] of the same molecule?
A: > 100 µM (inactive)

Q: What about the GI50 [19] of the same molecule?
A: > 100 µM (inactive)

Q: And the GI50 [20]?
A: > 100 µM (inactive)

Q: What about the GI50 [21] of the same molecule?
A: > 100 µM (inactive)

Q: And the GI50 [22]?
A: > 100 µM (inactive)

Q: What about the GI50 [23] of the same molecule?
A: > 100 µM (inactive)

Q: What about the GI50 [24] of the same molecule?
A: > 100 µM (inactive)

Q: And the GI50 [25]?
A: > 100 µM (inactive)

Q: And the GI50 [26]?
A: > 100 µM (inactive)

Q: What about the GI50 [27] of the same molecule?
A: > 100 µM (inactive)

Q: And the GI50 [28]?
A: > 100 µM (inactive)

Q: What about the GI50 [29] of the same molecule?
A: > 100 µM (inactive)

Q: And the GI50 [30]?
A: > 100 µM (inactive)

Q: What about the GI50 [31] of the same molecule?
A: > 100 µM (inactive)

Q: What about the GI50 [32] of the same molecule?
A: > 100 µM (inactive)

Q: And the GI50 [33]?
A: > 100 µM (inactive)

Q: And the GI50 [34]?
A: > 100 µM (inactive)

Q: What about the GI50 [35] of the same molecule?
A: > 100 µM (inactive)

Q: And the GI50 [36]?
A: > 100 µM (inactive)

Q: What about the GI50 [37] of the same molecule?
A: > 100 µM (inactive)

Q: What about the GI50 [38] of the same molecule?
A: > 100 µM (inactive)

Q: What about the GI50 [39] of the same molecule?
A: > 100 µM (inactive)

Q: And the GI50 [40]?
A: > 100 µM (inactive)

Q: And the GI50 [41]?
A: > 100 µM (inactive)

Q: And the GI50 [42]?
A: > 100 µM (inactive)

Q: And the GI50 [43]?
A: > 100 µM (inactive)

Q: What about the GI50 [44] of the same molecule?
A: > 100 µM (inactive)

Q: What about the GI50 [45] of the same molecule?
A: > 100 µM (inactive)

Q: And the GI50 [46]?
A: > 100 µM (inactive)

Q: And the GI50 [47]?
A: > 100 µM (inactive)

Q: What about the GI50 [48] of the same molecule?
A: > 100 µM (inactive)

Q: And the GI50 [49]?
A: > 100 µM (inactive)

Q: And the GI50 [50]?
A: > 100 µM (inactive)

Q: What about the GI50 [51] of the same molecule?
A: > 100 µM (inactive)

Q: What does the source list for `CCCCCCn1c(SCC)c2ccccc2c1-c1nc(F)nc(F)n1`?
A: GI50 [1]: > 100 µM (inactive); GI50 [3]: > 100 µM (inactive); GI50 [4]: > 100 µM (inactive); GI50 [52]: > 100 µM (inactive); GI50 [5]: 36 µM (inactive); GI50 [6]: > 100 µM (inactive); GI50 [7]: > 100 µM (inactive); GI50 [8]: > 100 µM (inactive); GI50 [9]: > 100 µM (inactive); GI50 [10]: > 100 µM (inactive); GI50 [11]: > 100 µM (inactive); GI50 [12]: > 100 µM (inactive); GI50 [53]: > 100 µM; GI50 [13]: > 100 µM (inactive); GI50 [14]: > 100 µM (inactive); GI50 [15]: > 100 µM (inactive); GI50 [16]: > 100 µM (inactive); GI50 [17]: > 100 µM (inactive); GI50 [18]: > 100 µM (inactive); GI50 [19]: > 100 µM (inactive); GI50 [20]: > 100 µM (inactive); GI50 [21]: > 100 µM (inactive); GI50 [22]: > 100 µM (inactive); GI50 [23]: > 100 µM (inactive); GI50 [24]: > 100 µM (inactive); GI50 [25]: > 100 µM (inactive); GI50 [26]: > 100 µM (inactive); GI50 [27]: > 100 µM (inactive); GI50 [28]: > 100 µM (inactive); GI50 [29]: > 100 µM (inactive); GI50 [30]: > 100 µM (inactive); GI50 [31]: > 100 µM (inactive); GI50 [54]: > 100 µM (inactive); GI50 [32]: > 100 µM (inactive); GI50 [33]: > 100 µM (inactive); GI50 [34]: > 100 µM (inactive); GI50 [35]: > 100 µM (inactive); GI50 [36]: > 100 µM (inactive); GI50 [37]: > 100 µM (inactive); GI50 [38]: > 100 µM (inactive); GI50 [39]: > 100 µM (inactive); GI50 [40]: > 100 µM (inactive); GI50 [41]: > 100 µM (inactive); GI50 [42]: > 100 µM (inactive); GI50 [55]: > 100 µM (inactive); GI50 [56]: > 100 µM (inactive); GI50 [43]: 73.5 µM (inactive); GI50 [44]: > 100 µM (inactive); GI50 [57]: 88.7 µM (inactive); GI50 [45]: > 100 µM (inactive); GI50 [46]: > 100 µM (inactive); GI50 [47]: > 100 µM (inactive); GI50 [48]: > 100 µM (inactive); GI50 [50]: > 100 µM (inactive); GI50 [51]: > 100 µM (inactive)

Source: ChEMBL document CHEMBL1201862, “PubChem BioAssay data set” (2004)
